Measured values reported in patent US11541057B2, “Thienopyrimidinone NMDA receptor modulators and uses thereof” (Cadent Therapeutics, Inc., priority 2015, dated 2023).

Target: T1, NMDA receptor GRIN1/GRIN2B (NR2B) expressed in HEK293 cells (Homo sapiens, UniProt Q13224)
T1 construct: host or cells: HEK293
Assay: Reversal of Ro 25-6981-mediated suppression of the Ca2+ response (fluo-8 fluorescence, FDSS) in HEK293 cells expressing GRIN1 and GRIN2B
Type: cell-based
Settings: % reversal=100*(R−Rneg)/(Rpos−Rneg) of Ro 25-6981 suppression of co-agonist (glutamate/glycine) Ca2+ response, 10 min pre-incubation, compound concentration not given
Description: HEK293 cells with constructs conferring stable expression of the GRIN1 gene and tetracycline-inducible expression of the GRIN2B gene (Chantest, Cleveland, Ohio) are grown to ˜75% confluence in tissue culture flasks at 37° C., 5% CO2. NR2B expression is induced by overnight incubation with 0.3-0.4 μg/ml tetracycline in the presence of 2.5 mM ARL-15896 at 37° C., followed by moving to 30° C. for 3-5 hours. Cells are next harvested using TripleExpress™ (Life Technologies, Carlsbad, Calif.) according to the manufacturer's instructions, first removing culture medium, rinsing with Dulbecco's phosphate buffered saline (Ca^2+ and Mg^2+-free), and then adding the TripleExpress™ reagent. Harvested cells are spun down, washed twice in Ca^2+- and Mg^2+-free Hank's Balanced Salt Solution with 20 mM HEPES and 10 mM glucose, pH 7.4 (HHnoCa solution), and counted with viability assessed using Trypan Blue. Cells are loaded with fluo-8 Ca^2+-sensitive dye in HHnoCa solution according to the manufacturer's directions (AAT Bioquest, Sunnyvale, Calif.), incubating at 37° C. for 20 minutes followed by 25 minutes at 22-25° C. After a wash in HHnoCa to remove extracellular dye, cells are resuspended in HHnoCa and plated at […] cells per well in a volume of 25 μl/well in 384 well black-wall, clear bottom plates (Hamamatsu, Middlesex, N.J.). Plates are then centrifuged to create a monolayer in the wells and stored in the dark until used.
Prior to analysis, compound plates are prepared with each compound at 6× the final desired concentration. From stock solutions at 10 mM in 100% DMSO, compounds are spotted in the desired amounts using an ECHO liquid handler (Labcyte, Sunnyvale, Calif.) into wells of a 384-well plate and then diluted with 50 μl of HHnoCa containing 750 nM Ro 25-6981 and 120 μM 5,7-dichlorokynurenic acid (both purchased from Tocris Bioscience (Bristol, England) and maintained as 10 mM stock solutions in 100% DMSO). To insure complete compound dissolution, these plates are then placed in an orbital shaker for at least one hour. Also prepared prior to the assay is a co-agonist plate containing HHnoCa with 240 μM glutamate, 2.4 mM glycine, and 7.2 mM CaCl2, which is 2.4× the desired final concentration of each reagent. Both the compound plate and co-agonist plate are 384-well polypropylene plates from Thermo Fisher Scientific, Waltham, Mass.
The assay is performed by first adding 10 μl solution from each well of the compound plate described above to the cell plate using a CyBiWell liquid handler (Analytik Jena AG, Jena, Germany), followed by 10 minutes pre-incubation in the dark. Cell plates are then loaded onto a Hamamatsu FDSS 6000 plate reader. After a 30-second baseline, 25 μl is added to each well from the co-agonist plate, and the fluorescence signal is recorded for another 2 minutes. FDSS software applies shading and autofluorescence correction, and resultant raw fluorescence measurements are exported in the form of a fluorescence ratio for each well to its own reading at time zero in the experiment. In each plate, negative control wells consist of wells where Ro 25-6981 and 5,7 dichlorokynurenic acid are present and co-agonist is applied in the absence of any added assay compound. Under these conditions, the Ca^2+ response to co-agonist is suppressed. Positive control wells also present in each plate contain 5,7 dichlorokynurenic acid but no Ro 25-6981, so that co-agonist addition results in a large Ca^2+ response. Compounds tested are evaluated on the basis of their ability to reverse the suppression of the Ca^2+ response mediated by Ro 25-6981, which is quantified as % reversal=100*(R−Rneg)/(Rpos−Rneg) where R is the fluorescence ratio for the test compound at the end of the experiment and Rneg and Rpos are the end ratios for the negative and positive controls, respectively. […]

T1 sequence (Q13224 27-1484, other chains not shown): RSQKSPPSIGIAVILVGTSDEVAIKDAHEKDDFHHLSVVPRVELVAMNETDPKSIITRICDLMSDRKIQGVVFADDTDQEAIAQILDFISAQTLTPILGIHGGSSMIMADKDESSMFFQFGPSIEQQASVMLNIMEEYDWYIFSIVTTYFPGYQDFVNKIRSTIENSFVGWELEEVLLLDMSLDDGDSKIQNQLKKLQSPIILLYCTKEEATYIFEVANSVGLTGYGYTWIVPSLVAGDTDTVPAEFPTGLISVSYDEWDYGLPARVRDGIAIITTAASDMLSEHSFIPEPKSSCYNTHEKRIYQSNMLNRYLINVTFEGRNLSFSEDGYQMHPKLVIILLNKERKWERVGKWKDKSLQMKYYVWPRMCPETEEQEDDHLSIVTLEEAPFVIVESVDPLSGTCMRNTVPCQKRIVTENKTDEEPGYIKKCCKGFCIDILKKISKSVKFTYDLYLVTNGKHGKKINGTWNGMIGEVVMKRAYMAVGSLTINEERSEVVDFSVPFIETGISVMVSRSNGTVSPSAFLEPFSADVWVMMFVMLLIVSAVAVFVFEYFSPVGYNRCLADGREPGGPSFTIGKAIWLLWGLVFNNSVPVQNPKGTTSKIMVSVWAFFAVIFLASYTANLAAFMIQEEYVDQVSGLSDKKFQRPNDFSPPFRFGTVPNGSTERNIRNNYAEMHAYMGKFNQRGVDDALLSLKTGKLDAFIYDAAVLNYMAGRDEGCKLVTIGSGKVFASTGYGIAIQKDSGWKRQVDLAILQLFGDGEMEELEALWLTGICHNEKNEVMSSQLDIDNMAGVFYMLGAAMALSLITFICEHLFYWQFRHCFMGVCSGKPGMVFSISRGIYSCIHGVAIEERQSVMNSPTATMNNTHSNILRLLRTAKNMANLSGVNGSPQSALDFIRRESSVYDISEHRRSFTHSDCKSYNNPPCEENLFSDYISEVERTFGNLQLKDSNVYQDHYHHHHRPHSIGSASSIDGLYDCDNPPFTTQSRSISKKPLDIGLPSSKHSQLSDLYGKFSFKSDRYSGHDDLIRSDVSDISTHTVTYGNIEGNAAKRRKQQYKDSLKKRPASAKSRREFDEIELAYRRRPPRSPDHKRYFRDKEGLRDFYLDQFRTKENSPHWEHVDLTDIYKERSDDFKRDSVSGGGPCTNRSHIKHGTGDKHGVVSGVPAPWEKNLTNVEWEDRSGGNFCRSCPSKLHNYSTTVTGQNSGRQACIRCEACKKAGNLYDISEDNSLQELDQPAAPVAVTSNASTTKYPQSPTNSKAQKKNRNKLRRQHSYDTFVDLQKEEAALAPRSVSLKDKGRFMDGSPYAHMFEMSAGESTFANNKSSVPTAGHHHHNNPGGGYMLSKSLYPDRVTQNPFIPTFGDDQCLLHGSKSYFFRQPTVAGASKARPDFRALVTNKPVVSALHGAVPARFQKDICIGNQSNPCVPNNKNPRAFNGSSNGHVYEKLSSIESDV

O=C(Cn1cnc2scc(-c3ccc(F)c(Cl)c3)c2c1=O)N1CCC(F)C1 (centres unmarked) [Example 58, 5-(3-chloro-4-fluorophenyl)-3-[2-(3-fluoropyrrolidin-1-yl)-2-oxoethyl]-3H,4H-thieno[2,3-d]pyrimidin-4-one]
Response Recovered (%): 65%

CCOC(=O)Cn1c(C)nc2scc(-c3ccc(Cl)cc3)c2c1=O [Example 97, Ethyl 2-(5-(4-chlorophenyl)-2-methyl-4-oxothieno[2,3-d]pyrimidin-3(4H)-yl)acetate]
Response Recovered (%): 2%

N#Cc1ccc(-c2csc3ncn(CC(=O)N4CCCC4)c(=O)c23)cc1 [Example 32, 4-{4-oxo-3-[2-oxo-2-(pyrrolidin-1-yl)ethyl]-3H,4H-thieno[2,3-d]pyrimidin-5-yl}benzonitrile]
Response Recovered (%): 2%

COc1ccc(-c2csc3ncn(CC(=O)N4CCCC4)c(=O)c23)cn1 [Example 36, 5-(6-methoxypyridin-3-yl)-3-[2-oxo-2-(pyrrolidin-1-yl)ethyl]-3H,4H-thieno[2,3-d]pyrimidin-4-one]
Response Recovered (%): 2%

O=C(Nn1cnc2scc(-c3ccc(Cl)c(C(F)(F)F)c3)c2c1=O)N1CCCC1 [Example 89, N-(5-(4-chloro-3-(trifluoromethyl)phenyl)-4-oxothieno[2,3-d]pyrimidin-3(4H)-yl)pyrrolidine-1-carboxamide]
Response Recovered (%): 29%

O=C(Cn1cnc2scc(-c3ccc(Cl)c(Cl)c3)c2c1=O)N1CC[C@H](F)C1 [Example 69, 5-(3,4-dichlorophenyl)-3-{2-[(3S)-3-fluoropyrrolidin-1-yl]-2-oxoethyl}-3H,4H-thieno[2,3-d]pyrimidin-4-one]
Response Recovered (%): 94%

O=C(Cn1cnc2scc(-c3cncnc3)c2c1=O)N1CCCC1 [Example 40, 3-[2-oxo-2-(pyrrolidin-1-yl)ethyl]-5-(pyrimidin-5-yl)-3H,4H-thieno[2,3-d]pyrimidin-4-one]
Response Recovered (%): 1%

Cc1cc(C(F)(F)F)ccc1-c1csc2ncn(CC(=O)N3CCCC3)c(=O)c12 [Example 50]
Response Recovered (%): 9%

Cn1nccc1-c1csc2ncn(CC(=O)N3CCCC3)c(=O)c12 [Example 33, 5-(1-methyl-1H-pyrazol-5-yl)-3-[2-oxo-2-(pyrrolidin-1-yl)ethyl]-3H,4H-thieno[2,3-d]pyrimidin-4-one]
Response Recovered (%): 1%

O=C(Cn1cnc2scc(-c3ccc(C(F)(F)F)cc3F)c2c1=O)N1CCCC1 [Example 38]
Response Recovered (%): 10%

O=C(Cn1cnc2scc(-c3ccc(Cl)c(Cl)c3)c2c1=O)N1CC[C@@H](F)C1 [Example 68, 5-(3,4-dichlorophenyl)-3-{2-[(3R)-3-fluoropyrrolidin-1-yl]-2-oxoethyl}-3H,4H-thieno[2,3-d]pyrimidin-4-one]
Response Recovered (%): 71%

O=C(Cn1c(C(F)(F)F)nc2scc(-c3ccc(Cl)cc3)c2c1=O)N1CCCC1C(F)(F)F (centres unmarked) [Example 104, 5-(4-chlorophenyl)-3-(2-oxo-2-(2-(trifluoromethyl)pyrrolidin-1-yl)ethyl)-2-(trifluoromethyl)thieno[2,3-d]pyrimidin-4(3H)-one]
Response Recovered (%): −2%

O=C(Cn1cnc2scc(-c3cc(C(F)(F)F)ccc3F)c2c1=O)N1CCCC1 [Example 54, 5-[2-fluoro-5-(trifluoromethyl)phenyl]-3-[2-oxo-2-(pyrrolidin-1-yl)ethyl]-3H,4H-thieno[2,3-d]pyrimidin-4-one]
Response Recovered (%): 20%

O=C(Cn1cnc2scc(-c3cccc(OC(F)(F)F)c3)c2c1=O)N1CCCC1 [Example 51, 3-[2-oxo-2-(pyrrolidin-1-yl)ethyl]-5-[3-(trifluoromethoxy)phenyl]-3H,4H-thieno└2,3-d┘pyrimidin-4-one]
Response Recovered (%): 27%

O=C(Cn1cnc2sc(-c3ccc(Cl)cc3)cc2c1=O)N1CCOCC1 [Example 77, 6-(4-chlorophenyl)-3-[2-(morpholin-4-yl)-2-oxoethyl]-3H,4H-thieno[2,3-d]pyrimidin-4-one]
Response Recovered (%): 18%

COc1ccc(-c2csc3ncn(CC(=O)N4CCCC4)c(=O)c23)cc1 [Example 41, 5-(4-methoxyphenyl)-3-[2-oxo-2-(pyrrolidin-1-yl)ethyl]-3H,4H-thieno[2,3-d]pyrimidin-4-one]
Response Recovered (%): 5%

Cc1sc2ncn(CC(=O)N3CCCC3)c(=O)c2c1-c1ccc(Cl)c(C(F)(F)F)c1 [Example 82, 5-[4-chloro-3-(trifluoromethyl)phenyl]-6-methyl-3-[2-oxo-2-(pyrrolidin-1-yl)ethyl]-3H,4H-thieno[2,3-d]pyrimidin-4-one]
Response Recovered (%): 15%

O=C(Cn1cnc2scc(-c3ccc(Cl)c(F)c3)c2c1=O)N1CCC(F)C1 (centres unmarked) [Example 59, 5-(4-chloro-3-fluorophenyl)-3-[2-(3-fluoropyrrolidin-1-yl)-2-oxoethyl]-3H,4H-thieno[2,3-d]pyrimidin-4-one]
Response Recovered (%): 43%

O=C(Cn1cnc2scc(-c3ccc(Cl)cc3)c2c1=O)N1CCCCC1 [Example 8, 5-(4-chlorophenyl)-3-[2-oxo-2-(piperidin-1-yl)ethyl]-3H,4H-thieno[2,3-d]pyrimidin-4-one]
Response Recovered (%): 3%

O=C(COn1cnc2scc(-c3ccc(F)c(Cl)c3)c2c1=O)N1CCCC1 [Example 93, 5-(3-chloro-4-fluorophenyl)-3-[2-oxo-2-(pyrrolidin-1-yl)ethoxy]-3H,4H-thieno┌2,3-d┐pyrimidin-4-one]
Response Recovered (%): −1%

CN1CCN(C(=O)Cn2cnc3scc(-c4ccc(Cl)cc4)c3c2=O)CC1 [Example 3, 5-(4-chlorophenyl)-3-[2-(4-methylpiperazin-1-yl)-2-oxoethyl]-3H,4H-thieno└2,3-d┘pyrimidin-4-one]
Response Recovered (%): 3%

O=C(Cn1cnc2scc(-c3ccc(Cl)c(C(F)(F)F)c3)c2c1=O)N1CC[C@@H](F)C1 [Example 64, 5-[4-chloro-3-(trifluoromethyl)phenyl]-3-{2-[(3R)-3-fluoropyrrolidin-1-yl]-2-oxoethyl}-3H,4H-thieno[2,3-d]pyrimidin-4-one]
Response Recovered (%): 117%

O=C(Cn1cnc2scc(-c3ccc(Cl)c(C(F)(F)F)c3)c2c1=O)N1CCCC1 [Example 20, 5-(4-chloro-3-(trifluoromethyl)phenyl)-3-(2-oxo-2-(pyrrolidin-1-yl)ethyl)thieno[2,3-d]pyrimidin-4(3H)-one]
Response Recovered (%): 76%

O=C(Cn1cnc2scc(-c3ccc(F)c(C(F)(F)F)c3)c2c1=O)N1CCCC1 [Example 47, 5-[4-fluoro-3-(trifluoromethyl)phenyl]-3-[2-oxo-2-(pyrrolidin-1-yl)ethyl]-3H,4H-thieno[2,3-d]pyrimidin-4-one]
Response Recovered (%): 43%

O=C(Cn1cnc2scc(-c3ccc(Cl)cc3)c2c1=O)N1CCC(F)C1 (centres unmarked) [Example 16, 5-(4-chlorophenyl)-3-[2-(3-fluoropyrrolidin-1-yl)-2-oxoethyl]-3H,4H-thieno[2,3-d]pyrimidin-4-one]
Response Recovered (%): 21%

O=C(Cn1cnc2scc(-c3cccc(Cl)c3Cl)c2c1=O)N1CCCC1 [Example 45, 5-(2,3-dichlorophenyl)-3-[2-oxo-2-(pyrrolidin-1-yl)ethyl]-3H,4H-thieno[2,3-d]pyrimidin-4-one]
Response Recovered (%): 7%
